Assay results: patent US20250332173A1, “COMPOUNDS AND METHODS FOR MODULATING NUCLEIC ACID SPLICING” (REMIX THERAPEUTICS INC., priority 2021, published 2025)
pIC50: −log10 of the molar value. Read-outs that look alike come from different tables or passages of the source.

Experiments:
Format in all cases: cell-based, human
[1] = system: SMN2 mRNA; experiment: RT-qPCR splicing assay, SMN2 canonical junction (CJ) mRNA; conditions: Homo sapiens
Procedure, shortened: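 A673 cells (DMEM/10% FBS) or K562 cells (IMDM/10% FBS) were treated 24 h at 37° C. with 11-point 3-fold dilutions (top 10 uM, ≤0.25% DMSO). Canonical-junction mRNA was quantified in lysates by RT-qPCR, normalized to GAPDH, GUSB or PPIA.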

[2] = system: HTT mRNA; experiment: RT-qPCR splicing assay, HTT canonical junction (CJ) and alternative junction (AJ) mRNA; conditions: Homo sapiens; for AC50: increase in HTT alternative junction (AJ) mRNA, read-out: HTT AJ AC50
Procedure, shortened: (§1)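 A673 or K562 cells were treated for 24 h at 37 °C with an 11-point 3-fold compound dilution series (top final concentration 10 uM, DMSO ≤0.25%). After lysis, one-step TaqMan RT-qPCR quantified junction transcripts, normalized to PPIA for A673 or to GAPDH/GUSB for K562.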

[3] = system: MYB mRNA; experiment: RT-qPCR splicing assay, MYB canonical junction (CJ) and alternative junction (AJ) mRNA; conditions: Homo sapiens; for AC50: increase in MYB alternative junction (AJ) mRNA, read-out: MYB AJ AC50
Procedure, shortened: as §1

[4] = canonical junction qPCR panel, Table 5, read-out: SMN2 (decrease in CJ mRNA levels, IC50)
[5] = decrease in HTT canonical junction (CJ) mRNA, RT-qPCR, read-out: HTT CJ IC50
[6] = canonical junction qPCR panel, Table 5, read-out: HTT (decrease in CJ mRNA levels, IC50)
[7] = canonical junction qPCR panel, Table 5, read-out: MYB (decrease in CJ mRNA levels, IC50)
[8] = decrease in MYB canonical junction (CJ) mRNA, RT-qPCR, read-out: MYB CJ IC50
[9] = Table 5 panel, canonical junction qPCR, compound concentration having 50% response in CJ decrease, read-out: SMN2 IC50 (decrease in CJ mRNA levels)
[10] = Table 5 panel, canonical junction qPCR, compound concentration having 50% response in CJ decrease, read-out: HTT IC50 (decrease in CJ mRNA levels)
[11] = Table 5 panel, canonical junction qPCR, compound concentration having 50% response in CJ decrease, read-out: MYB IC50 (decrease in CJ mRNA levels)

pIC50 [1, 4] | pIC50 [2, 5] | pIC50 [2, 6] | pIC50 [3, 7] | pIC50 [3, 8] | pIC50 [1, 9] | pIC50 [2, 10] | pIC50 [3, 11] | Compound | AC50 ([2]; RT-qPCR) [µM] | AC50 ([3]; RT-qPCR) [µM]
6.00 to 7.00 | 6.00 to 7.00 | 6.00 to 7.00 | 6.00 to 7.00 | 6.00 to 7.00 |  |  |  | Cc1cn2nc(-c3ccc4c(=O)n([C@H]5CC(C)N[C@@H](C)C5)ncc4n3)cc(C)c2n1 (stereo in doubt) [Compound 1538, 2-(2,8-dimethylimidazo[1,2-b]pyridazin-6-yl)-6-[(2S,6S)-2,6-dimethyl-4-piperidyl]pyrido[2,3-d]pyridazin-5-one] | 0.1 to 1 | 0.1 to 1
 | < 5.00 |  |  | < 5.00 | 6.00 to 7.00 | < 5.00 | < 5.00 | Cc1cn2cc(-c3ccc4c(c3)CCN(C3CCNCC3)C4=O)nc2c(C)n1 [Compound 221, 6-[6,8-dimethylimidazo[1,2-a]pyrazin-2-yl]-2-(piperidin-4-yl)-3,4-dihydroisoquinolin-1-one] | > 10 | > 10
> 7.00 | > 7.00 | > 7.00 | > 7.00 | > 7.00 |  |  |  | CCN1CC[C@@H](n2ncc3nc(-c4cc(C)c5nc(C)cn5n4)ccc3c2=O)CC12CC2 [Compound 1530] | < 0.1 | < 0.1
> 7.00 | 6.00 to 7.00 | 6.00 to 7.00 | > 7.00 | 6.00 to 7.00 |  |  |  | Cc1c(O)c(-c2ncc3c(=O)n([C@H]4CC[C@H](N(C)C)CC4)ccc3n2)cc2cn(C)nc12 [Compound 1459, 6-((1r,4r)-4-(dimethylamino)cyclohexyl)-2-(6-hydroxy-2,7-dimethyl-2H-indazol-5-yl)pyrido[4,3-d]pyrimidin-5(6H)-one] | 0.1 to 1 | < 0.1
> 7.00 | 6.00 to 7.00 | 6.00 to 7.00 | > 7.00 | 6.00 to 7.00 |  |  |  | Cc1cn2cc(-c3ncc4c(=O)n([C@H]5CCNC6(CC6)C5)ccc4n3)cc(F)c2n1 [Compound 1458, 6-[(7S)-4-azaspiro[2.5]octan-7-yl]-2-(8-fluoro-2-methyl-imidazo[1,2-a]pyridin-6-yl)pyrido[4,3-d]pyrimidin-5-one] | 0.1 to 1 | < 0.1
 | < 5.00 |  |  | < 5.00 | 6.00 to 7.00 | < 5.00 | < 5.00 | Cc1cc(-c2ccc3c(=O)n(C4CCN(C)CC4)cnc3c2F)cc2cn(C)nc12 [Compound 235] | > 10 | > 10

Compound | pIC50 [1, 4] | pIC50 [2, 5] | pIC50 [2, 6] | pIC50 [3, 7] | pIC50 [3, 8] | pIC50 [1, 9] | pIC50 [2, 10] | pIC50 [3, 11] | AC50 ([2]; RT-qPCR) [µM] | AC50 ([3]; RT-qPCR) [µM]
Cc1c(O)c(-c2ncc3c(=O)n([C@@H]4C[C@H]5COC[C@@H](C4)N5)ccc3n2)cc2cn(C)nc12 [Compound 1471] | > 7.00 | 6.00 to 7.00 | 6.00 to 7.00 | > 7.00 | > 7.00 |  |  |  | 0.1 to 1 | < 0.1
